Test results from patent US5344841A, “Bis-(hydroxylakylamino)-anthraquinone inhibitors of protein kinase C” (Sphinx Pharmaceuticals Corporation, priority 1992, dated 1994).
Where a name gives a salt, the structure may show the parent alone. Read-outs that look alike come from different tables or passages of the source.

Assays:
protein kinase C = test: Protein kinase C (PKC) inhibition assay (histone H1 phosphorylation); type: biochemical; details: rat brain PKC, histone H1 substrate
Method: The protein kinase C (PKC) assay is designed to duplicated the in vivo conditions required for protein kinase C function. Therefore, pH, salt and cofactor concentrations are similar to physiologic levels. Histone H1 (lysine rich) is used in the assay as the phosphorylation acceptor protein because it is readily available and serves as a good substrate for protein kinase C. The enzyme is prepared from rat brain and is purified to apparent homogeneity as determined by a single band on silver stained SDS-polyacrylamide. Studies on the mechanism of regulation of protein kinase C by phospholipids, DAG and Ca^+2 have been hampered by the physical properties of the lipid cofactors. In the screening assay, phosphatidylserine (PS) and DAG are cosonicated to form unilamellar and multilamellar vesicles. The concentration of lipids in the assay are suboptimal to maximize the detection potential of the assay for inhibitors. […] The assay is started with the addition of enzyme and stopped after 10 min by the addition of 25% trichloroacetic acid (TCA) and 1.0 mg/ml bovine serum albumin (BSA). The radioactive histone product is retained and washed on glass fiber filters that allow the unreacted ^32 P-ATP to pass through. The amount of phosphorylation is determined by the radioactivity measured in a scintillation counter. Controls are included in every assay to measure background activity in the absence of enzyme, activity in the absence of lipids and the maximum enzyme activity with saturating levels of the activator lipids.

[1] = system: MCF-7/ADR adriamycin resistant line of MCF-7 cells; test: Human tumor growth inhibition, 3H-thymidine incorporation, MCF-7/ADR; type: cell-based; details: MCF-7/ADR vs MCF-7
Text: (§1) MCF-7 a human breast tumor cell line, and MCF-7/ADR an adriamycin resistant line of MCF-7 cells were obtained from the National Cancer Institute, Frederick, Md. NHEK a human keratinocyte cell line was obtained from Clonetic Corp., San Diego, Calif. 8226 a human myeloma cell line, 8226/MT a Mitoxantrone resistant line of 8226 cells, and 8226 ADR an adriamycin resistant line of 8226 cells were obtained from Dr. Bill Dalton, Arizona Cancer Center, Tuscon, Ariz.
(§2) Human tumor cells are trypsinized (0.05% trypsin, GIBCO), counted with a hemacytometer and seeded at a concentration of 10,000 cells/well in a 96 well microtiter plate. After allowing cells to attach to the surface overnight, the culture medium is aspirated and replaced with 100 μl of fresh medium. Test agents are diluted to determine dose response at 2× final concentration and added in quadruplicate at 100 μl/well to bring the total volume of each well to 200 μl. The microtiter plate is then incubated at 37° C. 5% CO2 overnight (18-24 hrs) before ^3 H-thymidine is added at a concentration of 0.5 μCi/well in 50 μl culture medium. The plate is incubated again for 4 hrs under the same conditions as above. Supernatant is then aspirated and 50 μl trypsin (0.05%, GIBCO) is added to each well. Cells are checked microscopically to determine detachment from surfaces, and plates are then harvested with a cell harvester (PHD, Cambridge Technology, Inc.) Filter papers corresponding to wells are placed in scintillation vials and counted to determine the amount of ^3 H-thymidine incorporated by the cells. Test agent response is compared to a positive control of cell wells with culture media only to determine the IC50. IC50 is the concentration of test compound required to inhibit fifty percent of the incorporation of ^3 H-thymidine into proliferating cells not exposed to test agent. Uptake of ^3 H-thymidine is a standard test for measuring the metabolism of cells. Cells which are actively proliferating take up ^3 H-thymidine, whereas cells that are not proliferating take up ^3 H-thymidine at much slower rates or not at all. Test agents that inhibit the uptake of ^3 H-thymidine thus slow the growth of cells.

[2] = system: 8226/ADR adriamycin resistant line of 8226 cells; test: Human tumor growth inhibition, 3H-thymidine incorporation, 8226/ADR; type: cell-based; details: 3H-thymidine uptake
[3] = system: MCF-7/ADR adriamycin resistant line of MCF-7 cells; test: Human tumor growth inhibition, 3H-thymidine incorporation, MCF-7/ADR; type: cell-based; details: NCI/ADR-RES, 3H-thymidine uptake
[4] = system: 8226/ADR adriamycin resistant line of 8226 cells; test: Human tumor growth inhibition, 3H-thymidine incorporation, 8226/ADR; type: cell-based; details: 8226/ADR vs 8226
Text: as §1, §2

[5] = system: 8226 human myeloma cell line; test: Human tumor growth inhibition, 3H-thymidine incorporation, 8226; type: cell-based; details: read-out: IC50 8226
Text: as §1, §2

[6] = system: MCF-7 human breast tumor cell line; test: Human tumor growth inhibition, 3H-thymidine incorporation, MCF-7; type: cell-based; details: Homo sapiens, MCF7, 3 h, read-out: IC50 MCF-7
Text: as §1, §2

[7] = system: 8226/MT Mitoxantrone resistant line of 8226 cells; test: Human tumor growth inhibition, 3H-thymidine incorporation, 8226/MT; details: for Resistance Ratio (8226/MT): 8226/MT vs 8226; for IC50: Homo sapiens, read-out: IC50 8226/MT
human neutrophils = test: Neutrophil superoxide anion (O2-) release assay, PMA-stimulated; type: cell-based; details: PMA-stimulated O2- production
Method: Neutrophils were isolated form whole blood collected from human volunteers. All reagent materials were obtained from Sigma Chemical Company with the exception of isotonic saline (Travenol Lab., Inc. Deerfield, Ill.) and lymphocyte separation medium (Organon Teknika, Durham, N.C.). Whole blood was drawn and mixed with sodium heparin (final conc. 10 units/ml) to prevent clotting. An equal volume of dextran (3.0%) in isotonic saline was added, mixed, and allowed to settle for 30 min to bind red blood cells (RBC). The supernatant was removed, underlayered with lymphocyte separation medium and centrifuged for 40 min at 400 xg in a centrifuge (Beckman GPR, Norcross, Ga.). […] The washed pellet was resuspended in 10 ml HBSS and placed on ice before counting on a hemacytometer. The neutrophil cell concentration is adjusted to 2×10^6 cells/ml with HBSS before adding 0.8 ml cells to 12×75 mm polypropylene test tubes (Fisher Scientific). Test agents are diluted to determine dose response and added at 10×final concentration at a volume of 0.1 ml/tube in duplicate. […] Tubes are then centrifuged at 900 xg for 10 min, 0.5 ml supernatant is removed and added to 0.5 ml H2 O in a microcuvette. Optical density (OD) of cytochrome c is read in a spectrophotometer (Shimadzu) at 550 nm. The ΔOD of cytochrome c is obtained between PMA-stimulated and non-stimulated tubes, and the dose responses of the test agents are compared to the positive controls (which contain HBSS in place of test agents). PMA stimulates O2^- production which reduces cytochrome c. Reducing cytochrome c increases its absorbance, and the change in OD of cytochrome c is proportional to the amount of O2^- produced by PMA stimulation. Inhibition of the O2^- burst by test compounds of the invention is seen as a reduction in the change in optical density. Inhibition is expressed as IC50 μM and is the amount of test compound that will inhibit fifty percent of the PMA-stimulated respiratory outburst, i.e. O2^- production.

Row | Structure (SMILES) | IC50 (protein kinase C) [µM] | Resistance Ratio (IC50 MCF-7/ADR to IC50 MCF-7) [1] | IC50 [2] [µM] | IC50 [3] [µM] | IC50 ([5]; 3H-thymidine uptake) [µM] | IC50 ([6]; 3H-thymidine uptake) [µM] | Resistance Ratio (8226/ADR) [4] | also measured
1 | CCCNCC(O)CNc1ccc(NCC(O)CCl)c2c1C(=O)c1ccccc1C2=O (stereo not drawn) [1a-2 (HCl)] | 160 |  |  |  |  |  |  | 
2 | COc1cccc2c1C(=O)c1c(O)c3c(c(O)c1C2=O)C[C@@](O)(C(=O)CO)C[C@@H]3O[C@H]1C[C@H](N)[C@H](O)[C@H](C)O1 [ADR, reference compound] |  | 200 | 0.57 | 4 |  |  | 11.4 | Resistance Ratio (8226/MT) [7]: 1; IC50 [7]: 0.05 µM; IC50 [5]: 0.05 µM; IC50 [6]: 0.02 µM
3 | CCN(CC)CC(O)CNc1ccc(NCC(O)CCl)c2c1C(=O)c1ccccc1C2=O (stereo not drawn) [1a-1 (HCl), 1-(3-Diethylamino-2-Hydroxypropylamino)-4-(3-Chloro-2-Hydroxypropylamino)-9, 10-Anthracenedione Hydrochloride Salt] |  |  |  |  |  |  |  | IC50 (protein kinase C; Hydrochloride Salt): 230 µM; IC50 (protein kinase C; listed as 1a-1 (HCl salt), Hydrochloride Salt): 230 µM; IC50 (human neutrophils; Hydrochloride Salt): > 12.5 µM
4 | CCN(CC)CC(O)CNc1ccc(NCC(O)CCl)c2c1C(=O)c1ccccc1C2=O (stereo not drawn) [1a-1 (base), 1-(3-diethylamino-2-hydroxypropylamino)-4-(chloro-2-hydroxypropylamino)-9,10 anthracenedione] | 180 |  |  |  |  |  |  | IC50 (human neutrophils; Homo sapiens, Neutrophil): > 6.25 µM

The next lines start with results.

Row | IC50 (protein kinase C) [µM] | Resistance Ratio (IC50 MCF-7/ADR to IC50 MCF-7) [1] | IC50 [2] [µM] | IC50 [3] [µM] | IC50 ([5]; 3H-thymidine uptake) [µM] | IC50 ([6]; 3H-thymidine uptake) [µM] | Structure (SMILES) | Resistance Ratio (8226/ADR) [4] | also measured
5 |  | 1.9 | 16.3 | 14.1 | 15 | 7.4 | O=C1c2ccccc2C(=O)c2c(NCC(O)CNCc3ccccc3)ccc(NCC(O)CCl)c21 (stereo not drawn) [Compound 1a-3] | 1.08 | 
6 |  | 800 | 0.18 | 4 | 0.03 | 0.005 | O=C1c2c(O)ccc(O)c2C(=O)c2c(NCCNCCO)ccc(NCCNCCO)c21 [MT, reference compound] | 6 | Resistance Ratio (8226/MT) [7]: 3.5; IC50 [7]: 0.105 µM
7 |  |  | 25 |  | 18 |  | CCN(CC)CC(O)CNc1ccc(NCC(O)CO)c2c1C(=O)c1ccccc1C2=O (stereo not drawn) [Compound 1c-1] | 1.4 | 
8 | 180 |  |  |  |  |  | CCN(CC)CC(O)CNc1ccc(NCC(O)CO)c2c1C(=O)c1ccccc1C2=O (stereo not drawn) [1c-1 (HCl), 1-(3-Diethyl-2-Hydroxypropylamino)-4-(2,3-Dihydroxypropylamino)-9, 10-Anthracenedione Hydrochloride Salt] |  | 
9 | 110 |  |  |  |  |  | O=C1c2ccccc2C(=O)c2c(NCC(O)CNCc3ccccc3)ccc(NCC(O)CCl)c21 (stereo not drawn) [1a-3 (HCl)] |  | 
10 |  | 2.2 | 14.1 | 16 | 10.2 | 7.4 | CCCNCC(O)CNc1ccc(NCC(O)CCl)c2c1C(=O)c1ccccc1C2=O (stereo not drawn) [Compound 1a-2] | 1.38 | 
